Experimental data from article PMC6835155, “Lessons from LIMK1 enzymology and their impact on inhibitor design” (Biochemical Journal, 2019).
Structures can show the parent of a compound that is named as a salt. Where two headings read alike, the source gives them in different places.

Experiments:
[1] = molecular target: T1, LIMK2KD (Homo sapiens, UniProt P53671); experiment: Differential (dynamic) scanning fluorimetry (DSF) assay, LIMK2KD; assay type: binding; conditions: for ΔTm at 10 µM: read-out: TM Shift LIMK2 (K)
T1 construct: The cDNA coding for LIMK2 residues 330 to 632 was PCR amplified; His6 (N, cleaved yes); made in house; host or cells: baculovirus; Sf9 for virus, TriEx insect cells for expression

[2] = molecular target: T2, LIMK1KD (Homo sapiens, UniProt P53667); experiment: Differential (dynamic) scanning fluorimetry (DSF) assay, LIMK1KD; assay type: binding; conditions: for ΔTm at 10 µM: read-out: TM Shift LIMK1 (K)
T2 construct: His6 (N, cleaved yes); made in house; host or cells: baculovirus; Sf9 for virus, TriEx insect cells for expression

[3] = 2 µM LIMK1KD, compound 10 µM, single shot
[4] = LIMK2KD, compound 10 µM, single shot
[5] = LIMK2KD, compound 10 µM, single shot, 10 µM

T1 sequence (P53671 330-632): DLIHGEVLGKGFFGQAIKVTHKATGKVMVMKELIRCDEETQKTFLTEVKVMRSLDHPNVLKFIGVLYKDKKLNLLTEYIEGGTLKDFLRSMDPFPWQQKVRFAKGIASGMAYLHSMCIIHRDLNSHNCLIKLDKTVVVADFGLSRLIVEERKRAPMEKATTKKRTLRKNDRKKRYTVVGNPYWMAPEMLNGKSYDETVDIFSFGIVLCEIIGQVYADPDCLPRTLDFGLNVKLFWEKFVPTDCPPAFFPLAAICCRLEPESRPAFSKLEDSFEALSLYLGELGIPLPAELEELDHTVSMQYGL
T2 sequence (P53667 330-637): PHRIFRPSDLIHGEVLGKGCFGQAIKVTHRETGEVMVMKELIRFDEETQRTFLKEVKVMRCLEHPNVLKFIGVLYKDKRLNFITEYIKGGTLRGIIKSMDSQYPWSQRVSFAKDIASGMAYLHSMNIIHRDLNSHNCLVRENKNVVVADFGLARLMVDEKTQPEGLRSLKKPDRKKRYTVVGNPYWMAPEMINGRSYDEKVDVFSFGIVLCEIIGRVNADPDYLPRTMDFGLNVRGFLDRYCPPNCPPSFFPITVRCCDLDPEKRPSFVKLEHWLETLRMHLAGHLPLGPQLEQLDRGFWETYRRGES

Row | SMILES | ΔTm at 10 µM [2, 3] | ΔTm at 10 µM [1, 4] | TM Shift LIMK2 (K) [1, 4] | TM Shift LIMK1 (K) [2, 3] | other results
1 | CCOc1cc2ncc(C#N)c(Nc3ccc(OCc4ccccn4)c(Cl)c3)c2cc1NC(=O)/C=C/CN(C)C [Neratinib (HKI-272), Neratinib] | 0.2 °C |  |  |  | ΔTm at 10 µM [1]: 1 °C
2 | Cc1cn(-c2cc(NC(=O)c3ccc(C)c(Nc4nccc(-c5cccnc5)n4)c3)cc(C(F)(F)F)c2)cn1 [Nilotinib (AMN-107), Nilotinib] | 0.5 °C | 0.4 °C |  |  | 
3 | COC(=O)c1ccc2c(c1)NC(=O)/C2=C(\Nc1ccc(N(C)C(=O)CN2CCN(C)CC2)cc1)c1ccccc1 [Nintedanib] | 1.3 °C | 0.3 °C |  |  | 
4 | COc1cccc2cc(-c3nc([C@H]4CC[C@H](C(=O)O)CC4)n4ncnc(N)c34)[nH]c12 [OSI-027] | 2.2 °C | 0.2 °C |  |  | 
5 | C#Cc1cccc(Nc2ncnc3cc(OCCOC)c(OCCO)cc23)c1 [OSI-420] |  |  | -0.1 K | 0.1 K | 
6 | O=C(Nc1ccc(OC(F)(F)F)cc1)c1sccc1NCc1ccnc2ccccc12 [OSI-930] | 0.7 °C | 6.2 °C |  |  | 
7 | NCC(=O)Nc1ccc(-n2nc(C(F)(F)F)cc2-c2ccc3c(ccc4ccccc43)c2)cc1 [OSU-03012 (AR-12)] |  |  | 0.8 K | -1.2 K | 
8 | Cc1[nH]c(/C=C2\C(=O)Nc3ccccc32)c(C)c1CCC(=O)O [Orantinib] | 1.9 °C |  |  |  | TM Shift LIMK2 (K) [1, 5]: 1.0 K; TM Shift LIMK2 (K) ([1]; LIMK2KD, compound 10 µM, single shot, listed as TSU-68 (SU6668, Orantinib), 10 µM): 2.8 K; TM Shift LIMK1 (K) ([2]; 2 µM LIMK1KD, compound 10 µM, single shot, listed as TSU-68 (SU6668, Orantinib)): 1.7 K
9 | CN1CCC(c2c(O)cc(O)c3c(=O)cc(-c4ccccc4Cl)oc23)C1CO (stereo not shown) [P276-00] |  |  | 1.3 K | 0.7 K | 
10 | COc1cccc(-c2cc(=O)c3ccccc3o2)c1N [PD98059] |  |  | -0.3 K | -0.8 K | 
11 | C=CC(=O)Nc1ccc2ncnc(Nc3cccc(Br)c3)c2c1 [PD168393] |  |  | 2.0 K | 0.4 K | 
12 | CCN(CC)CCCCNc1ncc2cc(-c3cc(OC)cc(OC)c3)c(NC(=O)NC(C)(C)C)nc2n1 [PD173074] | 1.1 °C | 1.2 °C |  |  | 
13 | O=C(NOCC1CC1)c1ccc(F)c(F)c1Nc1ccc(I)cc1Cl [PD184352 (CI-1040)] | 0.1 °C | 0.9 °C |  |  | 
14 | O=C(NOCC(O)CO)c1cc(Br)c(F)c(F)c1Nc1ccc(I)cc1F (stereo not shown) [PD318088] |  |  | 2.8 K | 0.6 K | 
15 | CN(c1ccccc1CNc1nc(Nc2ccc3c(c2)CC(=O)N3)ncc1C(F)(F)F)S(C)(=O)=O [PF 431396] |  |  | 0.2 K | 2.9 K | 
16 | CN(c1ncccc1CNc1nc(Nc2ccc3c(c2)CC(=O)N3)ncc1C(F)(F)F)S(C)(=O)=O [PF-00562271] |  |  |  | 1.1 K | TM Shift LIMK2 (K) [1, 5]: 0.3 K
17 | CN(c1ncccc1CNc1nc(Nc2ccc3c(c2)CC(=O)N3)ncc1C(F)(F)F)S(C)(=O)=O [PF-562271] |  |  |  | -0.5 K | TM Shift LIMK2 (K) [1, 5]: -0.7 K
18 | CS(=O)(=O)c1cccc(CNc2nc(Nc3ccc4c(c3)CCC(=O)N4)ncc2C(F)(F)F)c1 [PF-573228] |  |  | 0.7 K | 1.0 K | 
19 | Nc1nccc(-c2c(-c3ccc(F)cc3)ncn2C2CCCCC2)n1 [PF-670462] |  |  | -0.2 K | 1.5 K | 
20 | Cc1nc(Nc2n[nH]c3c2CN(C(=O)N[C@H](CN(C)C)c2ccccc2)C3(C)C)c2sccc2n1 [PF-03758309] |  |  | -0.4 K | 0.7 K | 
21 | OCCn1cc(-c2cnc3nnn(Cc4ccc5ncccc5c4)c3n2)cn1 [PF-04217903] |  |  | -0.1 K | 0.3 K | 
22 | COc1ccc(-c2cc3c(C)nc(N)nc3n([C@H]3CC[C@H](OCCO)CC3)c2=O)cn1 [PF-04691502] |  |  | 0.6 K | 0.9 K | 
23 | CCc1cncnc1N1CCN(Cc2nc3ccc(C(F)(F)F)cc3[nH]2)CC1 [PF-04708671] |  |  |  | 1.6 K | TM Shift LIMK2 (K) [1, 5]: 1.7 K
24 | CCc1cncnc1N1CCN(Cc2nc3ccc(C(F)(F)F)cc3[nH]2)CC1 [PF-4708671] |  |  |  | 0.4 K | TM Shift LIMK2 (K) [1, 5]: 3.5 K
25 | Nc1ncnc2c1c(COc1cccc(Cl)c1)nn2C1CCOCC1 [PF-4800567] | 1.3 °C | -0.8 °C |  |  | 

Row | SMILES | ΔTm at 10 µM [2, 3] | ΔTm at 10 µM [1, 4] | TM Shift LIMK2 (K) [1, 4] | TM Shift LIMK1 (K) [2, 3] | other results
26 | CNC(=O)c1ccc(C)c(-n2c(C)cc(OCc3ccc(F)cc3F)c(Br)c2=O)c1 [PH-797804] | 1.3 °C | 0.1 °C |  |  | 
27 | Cc1[nH]c(/C=C2\C(=O)Nc3ccc(S(=O)(=O)Cc4c(Cl)cccc4Cl)cc32)c(C)c1C(=O)N1CCC[C@@H]1CN1CCCC1 [PHA-665752] | 1.3 °C | -0.4 °C |  |  | 
28 | CCc1cccc(CC)c1NC(=O)N1Cc2n[nH]c(NC(=O)c3ccc(N4CCN(C)CC4)cc3)c2C1 [PHA-680632] | 5 °C | 0.4 °C |  |  | 
29 | O=C1NCCc2[nH]c(-c3ccncc3)cc21 [PHA-767491] |  |  | 0.4 K | 1.2 K | 
30 | CC(C)CC(=O)Nc1[nH]nc2c1CN(C(=O)C1CCN(C)CC1)C2(C)C [PHA-793887] | 1 °C | 4.1 °C |  |  | 
31 | CCCCCCCCCCCCc1ccc(S(=O)(=O)Nc2nncs2)cc1 [PHT-427] |  |  | 1.6 K | 0.6 K | 
32 | Oc1cccc(-c2nc(N3CCOCC3)c3oc4ncccc4c3n2)c1 [PI-103] | -1 °C | 0.3 °C |  |  | 
33 | Cc1ccc([N+](=O)[O-])cc1S(=O)(=O)N(C)/N=C/c1cnc2ccc(Br)cn12 [PIK-75] |  |  | 2.4 K | 3.3 K | 
34 | CC(=O)Nc1nc(C)c(-c2ccc(Cl)c(S(=O)(=O)NCCO)c2)s1 [PIK-93] |  |  |  |  | TM Shift LIMK2 (K) ([1]; 10 µM): 1.7 K; TM Shift LIMK1 (K) [2]: 1.0 K
35 | Cc1ccccc1-n1c(Cn2ncc3c(N)ncnc32)nc2cccc(C)c2c1=O [PIK-293] |  |  | 0.9 K | 0.6 K | 
36 | CCCS(=O)(=O)Nc1ccc(F)c(C(=O)c2c[nH]c3ncc(Cl)cc23)c1F [PLX-4720] | 2.5 °C | 3.8 °C |  |  | 
37 | Cc1ccc(-c2nn(C(C)(C)C)c3ncnc(N)c23)cc1 [PP1] |  |  | 0.0 K | 2.0 K | 
38 | CC(C)(C)n1nc(-c2ccc(Cl)cc2)c2c(N)ncnc21 [PP2] |  |  | 2.4 K | 2.0 K | 
39 | Nc1ncnc2c1c(-c1cnc3[nH]ccc3c1)nn2C1CCCC1 [PP121] |  |  | 2.7 K | 3.6 K | 
40 | COc1ccc(Cl)cc1NC(=O)Nc1cc(C)nc2ccccc12 [PQ 401] |  |  | -0.9 K | 0.2 K | 
41 | NC(=O)c1cnc(N[C@@H]2CCCC[C@@H]2N)nc1Nc1cccc(-n2nccn2)c1 [PRT062607 (P505-15, BIIB057) HCl] | -0.6 °C | -1 °C |  |  | 
42 | C1=C/COCc2cc(ccc2OCCN2CCCC2)Nc2nccc(n2)-c2cccc(c2)COC/1 [Pacritinib (SB1518), Pacritinib] | 1.6 °C | 1.5 °C |  |  | 
43 | CC(=O)c1c(C)c2cnc(Nc3ccc(N4CCNCC4)cn3)nc2n(C2CCCC2)c1=O [Palbociclib (PD-0332991) HCl, Palbociclib] | 0.5 °C | 0.2 °C |  |  | 
44 | COc1ccc(COc2cc3oc(=O)c4cc(C(C)O)ccc4c3cc2OC)cc1 (stereo not shown) [Palomid 529 (P529)] |  |  | 10.6 K | 0.0 K | 
45 | CCOc1cc2ncc(C#N)c(Nc3ccc(F)c(Cl)c3)c2cc1NC(=O)/C=C/CN(C)C [Pelitinib (EKB-569), Pelitinib] | -0.7 °C | 1.5 °C |  |  | 
46 | [H]/N=C(/N)N/C(=N/[H])NCCc1ccccc1 [Phenformin HCl] | -0.3 °C | 0.6 °C |  |  | 
47 | Oc1cc(O)cc(/C=C/c2ccc(O)c(O)c2)c1 [Piceatannol] | -0.6 °C | 0.8 °C |  |  | 
48 | CS(=O)(=O)N1CCN(Cc2cc3nc(-c4cccc5[nH]ncc45)nc(N4CCOCC4)c3s2)CC1 [Pictilisib] |  |  |  | 2.2 K | TM Shift LIMK2 (K) [1, 5]: 0.1 K
49 | COc1ccc(Cl)c(Nc2nc3ccccc3nc2NS(=O)(=O)c2cccc(NC(=O)C(C)(C)N)c2)c1 [Pilaralisib] | -0.1 °C | 0.4 °C |  |  | 
